Each block holds one molecule with its values, some of them ahead of it.
Legend:
[1] = target: T1, porphobilinogen synthase (PBGS) (Pieris brassicae, UniProt A0A9P0XHI4); assay: biochemical
T1 construct: gene PIBRA_LOCUS11261
T1 sequence (A0A9P0XHI4 1-333): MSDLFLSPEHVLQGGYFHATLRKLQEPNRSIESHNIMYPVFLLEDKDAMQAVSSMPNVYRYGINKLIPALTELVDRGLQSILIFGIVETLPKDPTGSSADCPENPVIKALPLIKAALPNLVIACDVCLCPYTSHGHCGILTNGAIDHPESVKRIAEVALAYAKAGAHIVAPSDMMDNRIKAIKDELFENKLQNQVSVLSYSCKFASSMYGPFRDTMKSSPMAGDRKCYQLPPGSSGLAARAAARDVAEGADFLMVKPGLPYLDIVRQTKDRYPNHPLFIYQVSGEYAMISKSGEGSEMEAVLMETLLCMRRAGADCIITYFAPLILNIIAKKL

[2] = target: T1, porphobilinogen synthase (PBGS); assay: enzyme activity assay (PBG formation, Ehrlich's reagent, […] nm), Lineweaver-Burk analysis; format: biochemical
[3] = target: porphobilinogen synthase (PBGS) from Pieris brassicae (Pieris brassicae (endogenous in adult insects)); assay: native gel or EMSA; native PAGE at 4.5, 6.0, 7.5 and 9.75% polyacrylamide (Hedrick and Smith; buffer system of Davis) with reference proteins: 292.3 kDa for the holoenzyme, set against 36.5 kDa for the subunit by SDS/urea-PAGE; purified PBGS and a partially purified preparation
purified protein = substrate: NCC(=O)CCC(=O)O; assay: purified protein; conditions: zinc active site

IC50 [2]: 4.5 µM
Molecule: CC(=O)CC(=O)CCC(=O)O [SA, 4,6-dioxo-heptanoic acid]

stoichiometry N [3]: 8
Molecule: porphobilinogen synthase (PBGS) from Pieris brassicae (enzyme)

Continued, molecule first:

Molecule: CC(=O)CCC(=O)O [LA, levulinic acid]
Ki [1]: 340 µM

B1: porphobilinogen synthase (PBGS) (Pieris brassicae) (protein)
chain: T1 sequence (A0A9P0XHI4 1-333)
Km (purified protein): 360 µM

From article PMC2999460, “Porphobilinogen Synthase from the Butterfly, Pieris brassicae: Purification and Comparative Characterization” (2007)
